Results as given in patent US20100130597A1, “DNA-PKCS MODULATES ENERGY REGULATION AND BRAIN FUNCTION” (The United State of America, as represented by the …, priority 2007, published 2010).

Key:
[1] = Elevated plus maze test; format: in vivo, mice; conditions: SCID mice, intraperitoneal injection, FIG. 33
Description: To evaluate whether SCID mice may also have altered anxiety, fear and depression-like traits, an elevated plus maze test was performed, which is a commonly used test to quantify the level of anxiety- and depression-like traits in rodents (Pellow et al. J. Neurosci. Methods 14: 149-67 (1985)). The elevated plus maze has narrow runways that are located 16 inches above the surface that are either closed or open. The animal is placed in the center of an elevated 4-arm maze in which 2 arms are open and 2 are enclosed. Mice generally avoid the open arms because of their fear of open space and height. The elevated plus-maze is used to determine the rodent's response to a potentially dangerous environment and anxiety-related behavior is measured by the degree to which the rodent avoids the unenclosed arms of the maze. Increase in the number of times the animal enters the open arm and the amount of time spent in the open arms reflect decreased anxiety and depression.
(§1) Elevated plus maze tests, light/dark chamber tests, forced swim tests (FST) and hot plate tests were performed as described earlier.

[2] = Hot plate test, latency for pain reaction; format: in vivo, mice; conditions: data not shown
Description: Epidemiological studies indicate that people with mood disorders are twice as likely to have chronic pain compared to people without mood disorders (Ohayon et al., Arch. Gen. Psychiatry 60: 39-47 (2003)). Although it is possible that pain contributes to the depressed mood, it is also possible that perception of pain is increased in people with mood disorders. To determine whether SCID mice have altered pain tolerance, the latency for pain reaction to a hot plate was measured. […] (FIG. 30) and at 55° C.
Because tolerance to pain (Example 26) is also linked to the serotonergic pathways, measurements of the latency to pain reaction on hot plate after saline, serotonin reuptake inhibitor fluoxetine (Prozac) or serotonin antagonist GR38032F (Zofran) injection were made.
as §1

[3] = test system: MCF7 cells; assay: Reactive oxygen species production in MCF7 cells (CM-H2DCFDA); format: cell-based; conditions: for Reactive oxygen species production: NU 7026 5 μM 12 h, DNP 200 μM 10 min, Troglitazone 30 μM 4 hr, Euk-134 5 μM 3 h, MnTBAP 14 μM 3 h, FIG. 4
Text: Measurement of intracellular reactive oxygen species was based on changes in the fluorescence intensity of redox-sensitive fluorescent probes, including CM-H2DCFDA. CM-H2DCFDA is a probe for intracellular hydrogen peroxide (Jou M J et al. J. Biomed Sci 9:507 (2002)). CM-H2DCFDA rapidly diffuses into cells, reacts with intracellular glutathione and thiols, and yields a fluorescent product that is retained inside the cell (Shanker G et al. Mol Brain Res 128:48, 2004). The fluorescence intensity of CM-H2DCFDA is therefore indicative of the amount of intracellular H2O2.
Briefly, cells were incubated with 10 uM CM-H2DCFDA for 30 min at 37° C. The cells were then excited at the peak excitation wavelength for CM-H2DCFDA (485 nm) and emissions at 535 nm were measured with Wallac Victor multilable counter (Perkin Elmer). For glucose treatment, the total sugar content in the media was kept constant by supplementing with mannitol, which is not metabolized.
MCF-7 cells were obtained from ATCC and grown as recommended. Confluent MCF-7 cells were incubated with serum-free DMEM medium for 3-12 h before the experiment. MCF-7 cells were then treated with DNA-PK inhibitor NU 7026 (5 μM; Calbiochem) for 12 h, DNP (200 μM; Sigma) for 10 min, Troglitazone (30 μM) for 4 hr, Euk-134 (5 μM; Eukarion) for 3 h, MnTBAP (14 μM; Calbiochem) for 3 h and Resveratrol.

[4] = biological target: T1, DNA-PKcs (Homo sapiens, UniProt P78527); assay: DNA-PKcs activation in MCF7 cells, immunoblot for phosphorylated Ser2056; format: cell-based; conditions: for DNA-PKcs activation in the presence of 25 mM glucose: MCF7 cells, FIG. 5
T1 construct: endogenous in cells; host or cells: MCF7 (ATCC)
Description: MCF7 cells were obtained from the ATCC. MCF7 cells in G0 were treated with varying doses of H2O2 (FIG. 1). The cells were examined while in the G0 phase of their life cycle to mimic the post-mitotic state of cells in vivo. Low passage MCF-7 cells in G0 were exposed to varying concentrations of H2O2 for 60 minutes with or without Euk-134 or ionizing radiation (5 Gy). For Western blot analysis of DNA-PKcs activation and the activation of other signaling pathways in this study, the following antibodies were used: ACC1 (Cell Signaling); p-ACC1 (Upstate); AMP-activated protein kinase (AMPK; Cell Signaling); p-AMPK(T172) (Cell Signaling); DNA-PK (Lab Vision); p53 (Novocastra); p-DNA-PK(S2056) (Abeam); p-p53(S15) (Cell Signaling); γ-H2AX (Upstate); 53BP1 (Novus Biologicals).
Activation of DNA-PKcs was visualized by immunoblotting cell lysates with antibody specific for phosphorylated Ser2056, which is autophosphorylated during DNA-PKcs activation (Chen et al., J. Biol. Chem. 280: 14709-15 (2005)) (FIG. 1). […] Instead, H2O2 increased DNA-PKcs activation, and such activation was abrogated by the antioxidant Euk-134 (FIG. 1), a potent synthetic superoxide dismutase and catalase mimetic (Chatterjee, Am. J. Nephrol. 24: 165-77 (2004)).
MCF7 cells were then cultured in 25 mM glucose. Aliquots of the cultured MCF7 cells were treated with ionizing radiation and/or the DNA-PKcs-specific inhibitor NU7026. Treatment with glucose and ionizing radiation increased DNA-PKcs phosphorylation (data not shown). […] The basal activity of DNA-PKcs in MCF-7 cells in 25 mM glucose was detectable even in the absence of ionizing radiation, but this basal activity was suppressed with the DNA-PKcs-specific inhibitor NU7026 (data not shown).

[5] = biological target: DNA-PK (Homo sapiens, UniProt P78527); conditions: Hardcastle et al., J. Med. Chem. 48: 7829-46 (2005); read-out: IC50 against DNA-PK; cited from earlier work
[6] = test system: C2C12 cells; assay: Mitochondrial DNA copy number in C2C12 cells; format: cell-based; conditions: C2C12 myoblasts, FIG. 49C
Description: Quantitative Real-Time PCR was used to assess the relative amounts of nuclear DNA and mtDNA, to permit assessment of the ratio of mtDNA to nucleic DNA, which reflects the tissue concentration of mitochondria per cell. Muscle tissues were homogenized and digested with Proteinase K overnight in a lysis buffer for DNA extraction by conventional phenol-chloroform method. Quantitative PCR was performed using the following primers: […]
Increased mitochondrial function boosts energy production and physical endurance. […] Further tests were therefore conducted to ascertain whether DNA-PKcs inhibitor elevates mitochondrial biogenesis and expression of PGC-1α and Sirt, which are important for mitochondrial biogenesis. […] It is important to note that only 2.5 μM of NU7026 was required to induce a similar level of Sirt1 to that induced by 25-50 μM Resveratrol, a well-known, potent Sirt1 activator. In FIG. 49C, mitochondrial DNA copy number increased (>1.8 fold) in C2C12 cells after 2.5 μM NU7026 treatment.

[7] = test system: LKB1; assay: LKB1 activation (LKB1 phosphorylation) in C2C12 cells; format: cell-based; conditions: NU7026 2.5 μM, Resveratrol 50 μM, FIG. 51A
Description: Cells were treated with DNA-PKcs inhibitors to ascertain whether DNA-PKcs suppresses LKB1 activity in vitro.

[8] = test system: Sirt1 and PGC-1α; assay: Sirt1 and PGC-1α expression in C2C12 myoblasts; format: cell-based
Description: Increased mitochondrial function boosts energy production and physical endurance. […] Further tests were therefore conducted to ascertain whether DNA-PKcs inhibitor elevates mitochondrial biogenesis and expression of PGC-1α and Sirt, which are important for mitochondrial biogenesis. […] It is important to note that only 2.5 μM of NU7026 was required to induce a similar level of Sirt1 to that induced by 25-50 μM Resveratrol, a well-known, potent Sirt1 activator.

[9] = test system: neurons; conditions: low concentrations; De Felice et al. 2001; cited from earlier work
[10] = rats, systemic administration of kainic acid; Rong et al. 1999; cited from earlier work
[11] = Treadmill running endurance; format: in vivo, mice; conditions: ob/ob mice, FIG. 39
Description: Previous studies have shown that increased expression of PPARδ or PGC-1α in skeletal muscle decreases exercise-induced fatigue. Therefore, tests were performed to ascertain what was the physical endurance of 4, 7 and 14 month-old SCID and WT mice using treadmill running. Prior to the exercise test, the mice were accustomed to and trained by running on an Exer-3/6 mouse treadmill (Columbus Instruments) at 7 m/min for 5 minutes for 3 days. For the endurance test, the treadmill speed was increased to 10 m/min and mice were allowed to run until exhaustion.
The therapeutic potential of DNA-PKcs inhibitors to reverse physical decline with aging was tested. In particular, the physical endurance of obese and middle-aged mice treated with Cpd36 was examined by treadmill running. Obese mice fed a high-fat diet that were treated with Cpd36 were able to run 40-50% farther over a given period of time than the control mice fed the same high fat diet (FIG. 45), as measured by totaling the distance run on a treadmill. Middle-aged mice (13 months) fed a breeder diet who were similarly treated with Cpd36 were also able to run 40-50% farther than middle aged mice that received no such treatment (data not shown).

[12] = middle cerebral artery ligation; Baker et al. 1998; cited from earlier work
[13] = in vitro; cited from earlier work
[14] = ROS levels in tissues of ob/ob mice; format: in vivo; conditions: FIG. 38

For Cc1nccn1CC1CCc2c(c3ccccc3n2C)C1=O.Cl (stereo not drawn) [GR38032F], which “number of SCID mice that stayed in the open arm 30 sec or longer” value [1] is on record?
The value was “decreased dramatically”.

And the “latency for pain reaction on hot plate” value ([2]; SCID mice)?
The value was “decreased the latency for pain reaction in SCID mice”.

What about the “latency for pain reaction on hot plate” value ([2]; wild-type mice) of the same molecule?
Its value is “not wild-type mice”.

With “Manganese (III) tetrakis(4-benzoic acid)porphyrin [MnTBAP]” as the molecule, how does the “Reactive oxygen species production” value [3] read?
Its value is “significantly decreased”.

And the “DNA-PKcs activation in the presence of 25 mM glucose” value (“DNA-PKcs activation in the presence” for short) [4]?
Its value is “decreased DNA-PKcs activation”.

With O=c1cc(N2CCOCC2)oc2c(-c3cccc4c3sc3ccccc34)cccc12 [NU7441, 8-dibenzothiophen-4-yl-2-morpholin-4-yl-chromen-4-one] as the molecule, how does the IC50 [5] read?
The IC50 was 13 nM.

Which results are given for Oc1ccc(/C=C/c2cc(O)cc(O)c2)cc1 [Resveratrol]?
relative copy number of mitochondrial DNA [6]: increases; LKB1 activation (LKB1 phosphorylation) [7]: showed LKB1 activation; Reactive oxygen species production [3]: significantly decreased; DNA-PKcs activation in the presence of 25 mM glucose [4]: decreased DNA-PKcs activation; concentration required to induce a similar level of Sirt1 [8]: 25 to 50 µM; PGC-1α and Sirt1 expression ([8]; FIG. 49): increased

For CNCCC(Oc1ccc(C(F)(F)F)cc1)c1ccccc1 (stereo not drawn) [Fluoxetine], which “latency for pain reaction on hot plate” value ([2]; wild-type mice) is on record?
Its value is “increased the latency for pain reaction in wild-type mice”.

For CN(C)C(=N)NC(=N)N [metformin], which “DNA-PKcs activation in the presence” value [4] is on record?
Its value is “decreased DNA-PKcs activation”.

With Cc1c(C)c2c(c(C)c1O)CCC(C)(COc1ccc(CC3SC(=O)NC3=O)cc1)O2 (racemic) [TZD, (±)-[[4-[(3,4-dihydro-6-hydroxy-2,5,7,8-tetramethl-2H-1-benzopyran-2-yl)methoxy]phenyl]methyl]-2,4-thiazolidinedione] as the molecule, how does the “Reactive oxygen species production” value [3] read?
Its value is “significantly decreased”.

Which “Reactive oxygen species production” value [3] does the source give for O=[N+]([O-])c1ccc(O)c([N+](=O)[O-])c1 [DNP, 2,4-dinitrophenol] here?
Its value is “significantly decreased”.

And the “protection of neurons against amyloid-beta peptide toxicity” value [9]?
Its value is “protect neurons against the toxicity of the amyloid-beta peptide”.

What about the “DNA-PKcs activation in the presence” value [4] of the same molecule?
Its value is “decreased DNA-PKcs activation”.

For Euk-134, which “oxidative stress and brain damage” value [10] is on record?
The value was “prevent oxidative stress and attenuate brain damage”.

What about the treadmill running ability [11] of the same molecule?
Its treadmill running ability is “increased running ability of ob/ob mice dramatically”.

And the “effect in rat stroke model” value [12]?
Its value is “protective effects”.

What about the hydrogen peroxide consumption [13] of the same molecule?
Its hydrogen peroxide consumption is “consumes hydrogen peroxide in vitro”.

What about the “ROS production in muscle, WAT and heart tissues” value [14] of the same molecule?
Its value is “decreased ROS production”.

What about the “Reactive oxygen species production” value [3] of the same molecule?
Its value is “significantly decreased”.

What about the “glucose-induced reactive oxygen species production” value ([3]; glucose 0-25 mM, 3 hr, FIG. 2) of the same molecule?
The value was “partially suppressed”.

And the “H2O2-induced DNA-PKcs activation” value ([4]; MCF7 cells in G0, H2O2 60 minutes, FIG. 1)?
Its value is “abrogated”.

And the “DNA-PKcs activation in the presence” value [4]?
The value was “decreased DNA-PKcs activation”.
